Assay results published in patent US3932492A, “Process for preparing new amidine compounds” (Kao Soap Co., Ltd., priority 1973, dated 1976).

Test system: Wakin goldfish
Test: Toxicity to fish, plant waste water test method (JIS-K-0102-1964)
Assay type: in vivo
Protocol: The test was carried out according to plant waste water test method (JIS-K-0102-1964). Wakin goldfish was used as the subject.
*A concentration at which half the number of the subjects died within 48
hours. The higher the number of ppm., the lower the toxicity to fish.

In the case of Benzalkonium chloride, the “TLM (concentration at which half the number of the subjects died within 48 hours)” value is reported as 0.87 ppm.
